The values below come from patent US20240239752A1, “BICYCLIC HETEROAROMATIC INHIBITORS OF KLK5” (BioCryst Pharmaceuticals, Inc., priority 2021, published 2024).

Each structure is given as a SMILES string.

The target of the assay is T1, recombinant human KLK5 (Homo sapiens, UniProt Q9Y337).
T1 construct: purchased Novoprotein or R&D Systems C415 or 1108-SE
T1 sequence (Q9Y337 23-293): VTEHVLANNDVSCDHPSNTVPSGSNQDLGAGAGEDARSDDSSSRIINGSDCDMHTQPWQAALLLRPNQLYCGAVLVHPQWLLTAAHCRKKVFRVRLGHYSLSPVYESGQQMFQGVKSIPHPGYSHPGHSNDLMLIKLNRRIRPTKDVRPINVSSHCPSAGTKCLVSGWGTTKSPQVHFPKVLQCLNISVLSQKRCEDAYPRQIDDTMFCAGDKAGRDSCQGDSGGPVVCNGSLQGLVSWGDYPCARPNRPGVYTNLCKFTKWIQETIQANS
In words: Kallikrein (KLK) 5 enzymatic assay (Boc-VPR-AMC fluorogenic substrate). Type of assay: biochemical. The following applies: recombinant human KLK5 0.1 μg/well, Boc-VPR-AMC 100 μM, pH 7.5, room temperature, 1% DMSO; tested a minimum of three times. An outline of the steps:
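Fluorogenic rate assay at pH 7.5 (0.1 M NaH2PO4, 1% DMSO, room temperature), run at least three times per compound. Compound was premixed with 0.1 μg/well recombinant human KLK5 before adding 100 μM Boc-VPR-AMC; AMC release was read at ex 380/em 460 nm, and IC50 derived from inhibition of rate vs DMSO control.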
What is called IC50 is the concentration that inhibits the measured activity by half. Consider `COC(=O)N1CCC2(CC1)CC(Oc1cc(OC)ccc1CC(=O)O)c1cc(-c3ccc4ccnc(N)c4c3)ccc12` (stereo not drawn) [Compound 452c, 2-(2-((5-(1-aminoisoquinolin-7-yl)-1′-(methoxycarbonyl)-2,3-dihydrospiro[indene-1,4′-piperidin]-3-yl)oxy)-4-methoxyphenyl)acetic acid], for which the IC50 is < 1000 nM. On to `COC(=O)N1CCC2(CC1)CC(Oc1cc(OC)ccc1CC(=O)O)c1cc(-c3cccc4c(N)nccc34)ccc12` (stereo not drawn) [Compound 453b, 2-(2-((5-(1-aminoisoquinolin-5-yl)-1′-(methoxycarbonyl)-2,3-dihydrospiro[indene-1,4′-piperidin]-3-yl)oxy)-4-methoxyphenyl)acetic acid], for which the IC50 is < 1000 nM. Then `COC(=O)N1CCC2(CC1)CC(Oc1c(C#N)cccc1CC(=O)O)c1cc(-c3ccc4ccnc(N)c4c3)ccc12` (stereo not drawn) [Compound 454c, 2-(2-((5-(1-aminoisoquinolin-7-yl)-1′-(methoxycarbonyl)-2,3-dihydrospiro[indene-1,4′-piperidin]-3-yl)oxy)-3-cyanophenyl)acetic acid], with 1000 to 10000 nM; and `COC(=O)N1CCC2(CC1)CC(Oc1c(C#N)cccc1CC(=O)O)c1cc(-c3cccc4c(N)nccc34)ccc12` (stereo not drawn) [Compound 455b, 2-(2-((5-(1-aminoisoquinolin-5-yl)-1′-(methoxycarbonyl)-2,3-dihydrospiro[indene-1,4′-piperidin]-3-yl)oxy)-3-cyanophenyl)acetic acid], with 1000 to 10000 nM. Then `CC(C)N1CCN(C2CC(Oc3ccccc3CC(=O)O)c3cc(-c4cccc5c(N)nccc45)ccc32)CC1` (stereo not drawn) [Compound 456g, 2-(2-((6-(1-aminoisoquinolin-5-yl)-3-(4-isopropylpiperazin-1-yl)-2,3-dihydro-1H-inden-1-yl)oxy)phenyl)acetic acid], with < 1000 nM; and `CC(C)N1CCN(C2CC(Oc3ccccc3CC(=O)O)c3cc(-c4ccc5ccnc(N)c5c4)ccc32)CC1` (stereo not drawn) [Compound 457b], with < 1000 nM; and `Nc1nccc2c(-c3ccc4c(c3)c(COc3ccccc3CC(=O)O)cn4C3CCOC3)cccc12` (stereo not drawn) [Compound 458f, 2-(2-((5-(1-aminoisoquinolin-5-yl)-1-(tetrahydrofuran-3-yl)-1H-indol-3-yl)methoxy)phenyl)acetic acid], with < 1000 nM. Then `Nc1nccc2c(-c3ccc4c(c3)[C@H](Oc3ccccc3CC(=O)O)C[C@H]4N3CCCCC3)cccc12` [Compound 459f, (+)-trans 2-(2-(((1R,3R)-6-(1-aminoisoquinolin-5-yl)-3-(piperidin-1-yl)-2,3-dihydro-1H-inden-1-yl)oxy)phenyl)acetic acid], with < 1000 nM; and `Nc1nccc2c(-c3ccc4c(c3)[C@@H](Oc3ccccc3CC(=O)O)C[C@@H]4N3CCCCC3)cccc12` [Compound 459g, (−)-trans 2-(2-(((1S,3S)-6-(1-aminoisoquinolin-5-yl)-3-(piperidin-1-yl)-2,3-dihydro-1H-inden-1-yl)oxy)phenyl)acetic acid], with 1000 to 10000 nM.
